According to patent US11926625B2, “HPK1 antagonists and uses thereof” (Nimbus Saturn, Inc., priority 2021, dated 2024):

Molecular target: T1, HPK1 (Homo sapiens, UniProt Q92918)
T1 construct: purchased Invitrogen
Assay: HPK1 biochemical enzyme assay (microfluidic mobility shift, Caliper)
Details: 1.5 nM HPK1 (Invitrogen), 1 mM ATP, 30 min preincubation, 60 min at RT, top concentration 3 μM; read-out: HPK1 1000UMATP caliper IC50
Summary of the method: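 Mobility shift assay with 1.5 nM HPK1 at pH 7.4; compounds in ten-point titration (top final 3 μM) preincubated 30 min with enzyme. Reaction started with 1 mM ATP and 1 μM substrate, 5 mM MgCl2 final, run 60 min at RT before termination and readout.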

T1 sequence (Q92918 whole entry): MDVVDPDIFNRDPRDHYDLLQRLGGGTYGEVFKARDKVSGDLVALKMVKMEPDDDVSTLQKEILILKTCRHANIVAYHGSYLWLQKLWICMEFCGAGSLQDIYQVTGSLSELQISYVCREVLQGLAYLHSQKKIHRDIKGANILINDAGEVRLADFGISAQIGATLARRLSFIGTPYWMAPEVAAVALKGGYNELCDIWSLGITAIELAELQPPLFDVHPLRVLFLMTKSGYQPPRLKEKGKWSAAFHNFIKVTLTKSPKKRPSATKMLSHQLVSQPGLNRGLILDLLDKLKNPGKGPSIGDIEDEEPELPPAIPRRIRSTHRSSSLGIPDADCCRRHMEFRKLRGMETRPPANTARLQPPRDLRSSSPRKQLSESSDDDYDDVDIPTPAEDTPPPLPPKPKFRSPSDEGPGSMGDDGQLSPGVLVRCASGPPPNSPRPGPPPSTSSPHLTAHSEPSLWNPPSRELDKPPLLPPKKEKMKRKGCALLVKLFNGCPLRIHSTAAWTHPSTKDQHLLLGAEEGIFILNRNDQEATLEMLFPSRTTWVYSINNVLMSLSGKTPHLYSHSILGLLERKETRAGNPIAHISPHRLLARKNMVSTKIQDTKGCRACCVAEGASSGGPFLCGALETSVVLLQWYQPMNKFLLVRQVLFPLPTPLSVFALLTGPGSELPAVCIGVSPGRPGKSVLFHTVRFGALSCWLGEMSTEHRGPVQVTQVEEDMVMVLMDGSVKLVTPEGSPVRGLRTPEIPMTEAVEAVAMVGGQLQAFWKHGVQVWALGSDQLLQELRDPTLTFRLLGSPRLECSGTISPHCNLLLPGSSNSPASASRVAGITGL

- IC50: 1000 to 5000 nM
SMILES: Cn1cc(-c2ccc(Nc3ccc(N4CCNCC4)cn3)c3c2CNC3=O)nc1-c1ccccc1 [Compound I-88, 4-(1-methyl-2-phenyl-1H-imidazol-4-yl)-7-((5-(piperazin-1-yl)pyridin-2-yl)amino) isoindolin-1-one]
